Source: publication PMC7586963, “Coumarin‐Tagged Dinuclear Trithiolato‐Bridged Ruthenium(II)⋅Arene Complexes: Photophysical Properties and Antiparasitic Activity” (Chembiochem, 2020)
Where two headings read alike, the source gives them in different places.

Assays:
[1] = system: T. gondii β-gal tachyzoites; test: T. gondii β-gal tachyzoite proliferation in HFF (β-galactosidase/CPRG assay); details: for activity at 0.1 µM / activity at 1 µM: read-out: T. gondii β-gal proliferation (%); for IC50: read-out: IC50 against T. gondii β-gal tachyzoite proliferation; for T. gondii β-gal proliferation (%): 3 days, relative to 0.1 % DMSO control
Method: The compounds presented in this study were screened for biological activity in vitro against T. gondii β‐gal, a transgenic strain that constitutively expresses β‐galactosidase, which is grown in HFF monolayers. In addition, the effects on uninfected HFF host cells were assessed. […] The viability of HFF cultures following drug treatments was measured by alamarBlue assay, and the proliferation of T. gondii was quantified by measuring β‐galactosidase activity.
In vitro culture of parasites and host cells: If not stated otherwise, all tissue culture media were purchased from Gibco‐BRL, and biochemical reagents were from Sigma‐Aldrich). Human foreskin fibroblasts (HFF) were maintained in DMEM containing 10 % fetal calf serum (FCS; Gibco‐BRL) and antibiotics as described earlier.10 T. gondii β‐gal (transgenic T. gondii RH expressing the β‐galactosidase gene from E. coli 69 were maintained in HFF cells, and were isolated and separated from their host cells as described.10
In vitro assessment of drug efficacy: To study the effects of compounds against T. gondii tachyzoites in vitro, 1 mM stock solutions of complexes were prepared in DMSO, and stored at −20 °C. For assessment of drug efficacy against T. gondii tachyzoites, parasites were isolated and assays were performed using HFF as host cells as previously described.10 In short, 5×10^3 HFF cells per well were grown to confluence in a 96‐well plate in phenol‐red free culture medium at 37 °C with 5 % CO2. […] Initial assessments of drug efficacy were done by exposing parasite cultures to 0.1 and 1 μM of each compound for a period of three days, or 0.1 % DMSO was added as a control. […] After three days of incubation at 37 °C, 5 % CO2, medium was removed, and cell cultures were permeabilized by using 90 μL PBS containing 0.05 % Triton‐X‐100. After addition of 10 μL of 5 mM chlorophenol red‐β‐D‐galactopyranoside (CPRG; Roche Diagnostics) dissolved in PBS, the absorption shift was measured at 570 nm wavelength at various time points on a VersaMax multiplate reader (Bucher Biotec, Basel, Switzerland). For the initial screening at 0.1 and 1 μM, the activity, measured as the release of chlorophenol red over time, was calculated as percentage from DMSO control, which represented 100 % of T. gondii β‐gal growth. […] IC50 values were calculated after the logit‐log‐transformation of relative growth and subsequent regression analysis. All calculations were performed using the corresponding software tool contained in the Excel software package (Microsoft).

in vitro = details: human
Method: (§1) In addition, the effects on uninfected HFF host cells were assessed. […] The viability of HFF cultures following drug treatments was measured by alamarBlue assay, and the proliferation of T. gondii was quantified by measuring β‐galactosidase activity.

[2] = system: human foreskin fibroblasts (HFF)
Method: as §1

[3] = system: human foreskin fibroblasts (HFF); test: Cytotoxicity on uninfected confluent HFF (alamarBlue assay); details: 2.5 μM
Method: as §1

Compound	activity at 0.1 µM ([1]; Toxoplasma gondii, 72 h) [%]	activity at 1 µM ([1]; Toxoplasma gondii, 72 h) [%]	viability at 3 days, 0.1 µM (in vitro) [%]	viability at 3 days, 1 µM (in vitro) [%]	further results
CCN(CC)c1ccc2cc(C(=O)NCCCCN)c(=O)oc2c1 [Compound 9]	114 ± 4	127 ± 4	125 ± 20	111 ± 4	–
CC(C)(C)OC(=O)NCCCCNC(=O)c1cc2cc3c4c(c2oc1=O)CCCN4CCC3 [Compound 7]	132 ± 6	148 ± 5	95 ± 9	96 ± 6	–
CCN(CC)c1ccc2cc(C(=O)NCCCNC(=O)OC(C)(C)C)c(=O)oc2c1 [Compound 5]	131 ± 3	118 ± 22	118 ± 10	88 ± 10	–
NCCCCNC(=O)c1cc2cc3c4c(c2oc1=O)CCCN4CCC3 [Compound 10]	101 ± 8	113 ± 7	124 ± 5	69 ± 9	–
CCN(CC)c1ccc2cc(C(=O)NCCCCNC(=O)OC(C)(C)C)c(=O)oc2c1 [Compound 6]	137 ± 9	125 ± 16	98 ± 8	82 ± 4	–
CCc1nc(N)nc(N)c1-c1ccc(Cl)cc1 [pyrimethamine, reference compound]	–	–	–	–	IC50 ([1]; Toxoplasma gondii, 72 h): 326 nM; viability at 2.5 µM (in vitro): 99%
O=C(O)c1cc2cc3c4c(c2oc1=O)CCCN4CCC3 [Dye2‐CO2H, 11‐oxo‐2,3,6,7‐tetrahydro‐1H,5H,11H‐pyrano[2,3‐f]pyrido[3,2,1‐ij]quinoline‐10‐carboxylic acid, reference compound]	69 ± 11	92 ± 6	106 ± 1	105	T. gondii β-gal proliferation (%) ([1]; 0.1 µM): 69%; HFF viability (%) ([2]; 0.1 µM): did not affect viability of HFF; HFF viability (%) ([2]; 1 µM): did not affect viability of HFF
CCN(CC)c1ccc2cc(C(=O)NCCCN)c(=O)oc2c1 [Compound 8]	117 ± 10	114 ± 13	96 ± 9	85 ± 6	–
[(η6-p-MeC6H4Pri)2Ru2(µ2-SCH2C6H4-p-But)(µ2-SC6H4-p-OH)2]Cl [Compound 19]	–	–	–	–	T. gondii β-gal proliferation (%) ([1]; 0.1 µM): 3 ± 1%; T. gondii β-gal proliferation (%) ([1]; 1 µM): 2 ± 0%; IC50 ([1]; three days of incubation, in HFF host cells, 6 concentrations 0.03-1 μM): 115 nM; HFF viability (%) ([2]; 0.1 µM): 62 ± 8%; HFF viability (%) ([2]; 1 µM): 56 ± 7%; HFF viability at 2.5 μM ([2]; 2.5 μM): 2%; reduction in HFF viability [3]: 98%
